Each structure is given as a SMILES string.

The test concerns the target T1, α-synuclein peptide fragments (Peptide 4F, CTGFVKKDQLGK) (Homo sapiens, UniProt P37840).
T1 construct: purchased American Peptide
In words: In-vitro fluorescence polarization assay with alpha-synuclein peptide fragment (4F). In kind it is biochemical. The settings on record: peptide 4F 100 nM, 120 min at room temperature, compound 33.3 to 0.015 microM, 50 mM HEPES pH 7.4, 50 mM NaCl, read-out: IC50 (inhibition of self-aggregation of α-synuclein peptide fragment 4F). The method, then:
Biological Example 1: In-Vitro Fluorescence Polarization Assay with Alpha-Synuclein Peptide Fragment (4F)
The fluorescence polarization assay tests the ability of compounds to inhibit the self-aggregation of α-synuclein peptide fragments. Peptides were incubated for 120 min at room temperature in the presence or absence of test compounds (compound concentrations were 33.3 to 0.015 microM). Samples were read on a Beckman Coulter DTX 880 plate reader in fluorescence polarization mode using excitation at 485 nm and emission at 520 nm. Data was analyzed using a four-parameter logistic fit (XLFit, IDBS Software). Peptide 4F (CTGFVKKDQLGK (SEQ ID NO: 1)) was prepared by American Peptide. Fresh peptide samples were reconstituted in purified water at 5 mM and diluted into 50 mM HEPES pH 7.4 with 50 mM NaCl to 100 nM final concentration. Solid compounds were dissolved in DMSO (10 mM), and then diluted serially in DMSO (300×) followed by dilution in buffer (1×) to provide solutions with a consistent final DMSO concentration of 0.33%.
Background: Polarisation of emitted light reports the rotation of a fluorescent probe.
A word on the IC50: it is the concentration at which inhibition is half-maximal. With `CCCCC(Cc1c[nH]c2ccccc12)NC(=O)c1cnc(N2CCn3nc(C)nc3C2)s1` (centres unmarked) [Example 8, N-[1-(1H-indol-3-ylmethyl)pentyl]-2-(2-methyl-6,8-dihydro-5H-[1,2,4]triazolo[1,5-a]pyrazin-7-yl)thiazole-5-carboxamide], the half-maximal inhibitory concentration (IC50) worked out at 1.6 µM.

Take `CCCCC(Cc1c[nH]c2ccccc12)NC(=O)c1cnc(N2Cc3cnn(C)c3C2)s1` (centres unmarked) [Example 5, N-[1-(1H-indol-3-ylmethyl)pentyl]-2-(1-methyl-4,6-dihydropyrrolo[3,4-c]pyrazol-5-yl)thiazole-5-carboxamide]: the IC50 amounted to 2.1 µM.

Turning to `CCCCC(Cc1c[nH]c2ccccc12)NC(=O)c1cnc(N2CCn3c(C)nnc3C2)s1` (centres unmarked) [Example 14, N-[1-(1H-indol-3-ylmethyl)pentyl]-2-(3-methyl-6,8-dihydro-5H-[1,2,4]triazolo[4,3-a]pyrazin-7-yl)thiazole-5-carboxamide], the half-inhibitory concentration (IC50) was 1.7 µM.

With `CCCCC(Cc1c[nH]c2ccccc12)NC(=O)c1cnc(N2CCn3c(cc(C(F)(F)F)cc3=O)C2)s1` (centres unmarked) [Example 13, N-[1-(1H-indol-3-ylmethyl)pentyl]-2-[6-oxo-8-(trifluoromethyl)-3,4-dihydro-1H-pyrido[1,2-a]pyrazin-2-yl]thiazole-5-carboxamide], the IC50 is 1.4 µM.

In the case of `CCCCC(Cc1c[nH]c2ccccc12)NC(=O)c1cnc(N2CCc3oncc3C2)s1` (centres unmarked) [Example 15, 2-(6,7-dihydro-4H-isoxazolo[4,5-c]pyridin-5-yl)-N-[1-(1H-indol-3-ylmethyl)pentyl]thiazole-5-carboxamide], the concentration for half-maximal inhibition (IC50) came out at 1.3 µM.

In the case of `CCCCC(Cc1c[nH]c2ccccc12)NC(=O)c1cnc(N2CCc3noc(C(F)(F)F)c3C2)s1` (centres unmarked) [Example 12, N-[1-(1H-indol-3-ylmethyl)pentyl]-2-[3-(trifluoromethyl)-6,7-dihydro-4H-isoxazolo[4,3-c]pyridin-5-yl]thiazole-5-carboxamide], the half-inhibitory concentration (IC50) stood at 0.9 µM.

Turning to `CCCCC(Cc1c[nH]c2ccccc12)NC(=O)c1cnc(N2CCc3onc(C(F)(F)F)c3C2)s1` (centres unmarked) [Example 11, N-[1-(1H-indol-3-ylmethyl)pentyl]-2-[3-(trifluoromethyl)-6,7-dihydro-4H-isoxazolo[4,5-c]pyridin-5-yl]thiazole-5-carboxamide], the 50% inhibitory concentration (IC50) was determined as 0.8 µM.

For `CCCCC(Cc1c[nH]c2ccccc12)NC(=O)c1cnc(N2CCn3c(nnc3C(F)(F)F)C2)s1` (centres unmarked) [Example 18, N-[1-(1H-indol-3-ylmethyl)pentyl]-2-[3-(trifluoromethyl)-6,8-dihydro-5H-[1,2,4]triazolo[4,3-a]pyrazin-7-yl]thiazole-5-carboxamide], the 50% inhibitory concentration (IC50) is 1.2 µM.

In the case of `CCCCC(Cc1c[nH]c2ccccc12)NC(=O)c1cnc(N2CCn3nccc3C2)s1` (centres unmarked) [Example 19, 2-(6,7-dihydro-4H-pyrazolo[1,5-a]pyrazin-5-yl)-N-[1-(1H-indol-3-ylmethyl)pentyl]thiazole-5-carboxamide], the concentration for half-maximal inhibition (IC50) was 1.3 µM.

On to `CCCCC(Cc1c[nH]c2ccccc12)NC(=O)c1cnc(N2CCc3c(cnn3C)C2)s1` (centres unmarked) [Example 16, N-[1-(1H-indol-3-ylmethyl)pentyl]-2-(1-methyl-6,7-dihydro-4H-pyrazolo[4,3-c]pyridin-5-yl)thiazole-5-carboxamide], for which the 50% inhibitory concentration (IC50) amounted to 1 µM.

As for `CCCCC(Cc1c[nH]c2ccccc12)NC(=O)c1cnc(N2CCn3ncnc3C2)s1` (centres unmarked) [Example 7, 2-(6,8-dihydro-5H-[1,2,4]triazolo[1,5-a]pyrazin-7-yl)-N-[1-(1H-indol-3-ylmethyl)pentyl]thiazole-5-carboxamide], the IC50 came out at 2.2 µM.

As for `CCCCC(Cc1c[nH]c2ccccc12)NC(=O)c1cnc(N2CCc3[nH]ncc3C2)s1` (centres unmarked) [Example 3, N-[1-(1H-indol-3-ylmethyl)pentyl]-2-(1,4,6,7-tetrahydropyrazolo[4,3-c]pyridin-5-yl)thiazole-5-carboxamide], the IC50 came to 2.2 µM.

For `CCCCC(Cc1c[nH]c2ccccc12)NC(=O)c1cnc(N2Cc3cn[nH]c3C2)s1` (centres unmarked) [Example 1, 2-(4,6-dihydro-1H-pyrrolo[3,4-c]pyrazol-5-yl)-N-[1-(1H-indol-3-ylmethyl)pentyl]thiazole-5-carboxamide], the 50% inhibitory concentration (IC50) was determined as 2.4 µM.

With `CCCCC(Cc1c[nH]c2ccccc12)NC(=O)c1cnc(N2CCc3nn(C)cc3C2)s1` (centres unmarked) [Example 20, N-[1-(1H-indol-3-ylmethyl)pentyl]-2-(2-methyl-6,7-dihydro-4H-pyrazolo[4,3-c]pyridin-5-yl)thiazole-5-carboxamide], the half-maximal inhibitory concentration (IC50) was 1.2 µM.

As for `CCCCC(Cc1c[nH]c2ccccc12)NC(=O)c1cnc(N2CCn3nncc3C2)s1` (centres unmarked) [Example 6, 2-(6,7-dihydro-4H-triazolo[1,5-a]pyrazin-5-yl)-N-[1-(1H-indol-3-ylmethyl)pentyl]thiazole-5-carboxamide], the IC50 was 2.6 µM.

Regarding `CCCCC(Cc1c[nH]c2ccccc12)NC(=O)c1cnc(N2CCn3nc(C)cc3C2)s1` (centres unmarked) [Example 4, N-[1-(1H-indol-3-ylmethyl)pentyl]-2-(2-methyl-6,7-dihydro-4H-pyrazolo[1,5-a]pyrazin-5-yl)thiazole-5-carboxamide], the IC50 was determined as 1.4 µM.

In the case of `CCCCC(Cc1c[nH]c2ccccc12)NC(=O)c1cnc(N2CCn3ccnc3C2)s1` (centres unmarked) [Example 17, 2-(6,8-dihydro-5H-imidazo[1,2-a]pyrazin-7-yl)-N-[1-(1H-indol-3-ylmethyl)pentyl]thiazole-5-carboxamide], the 50% inhibitory concentration (IC50) is 1.6 µM.

On to `CCCCC(Cc1c[nH]c2ccccc12)NC(=O)c1cnc(N2CCc3onc(C)c3C2)s1` (centres unmarked) [Example 10, N-[1-(1H-indol-3-ylmethyl)pentyl]-2-(3-methyl-6,7-dihydro-4H-isoxazolo[4,5-c]pyridin-5-yl)thiazole-5-carboxamide], for which the IC50 came to 0.84 µM.

In the case of `CCCCC(Cc1c[nH]c2ccccc12)NC(=O)c1cnc(N2CCn3cnnc3C2)s1` (centres unmarked) [Example 2, 2-(6,8-dihydro-5H-[1,2,4]triazolo[4,3-a]pyrazin-7-yl)-N-[1-(1H-indol-3-ylmethyl)pentyl]thiazole-5-carboxamide], the IC50 was determined as 2.3 µM.

`CCCCC(Cc1c[nH]c2ccccc12)NC(=O)c1cnc(N2CCn3cncc3C2)s1` (centres unmarked) [Example 9, 2-(6,8-dihydro-5H-imidazo[1,5-a]pyrazin-7-yl)-N-[1-(1H-indol-3-ylmethyl)pentyl]thiazole-5-carboxamide]: the IC50 was found to be 1.5 µM.

These data come from US10889584B2, “Bicyclic bis-heteroaryl derivatives as modulators of protein aggregation” (UCB Biopharma SRL, priority 2017, dated 2021).
